On to `COC(=O)[C@H](CCC(=O)NCCc1ccc(O)c(OCc2ccccc2)c1)NC(=O)OCc1ccccc1`, for which the melting point lay within 110 to 115 °C.
To `CCCCC1(CCCC)c2cc(Br)ccc2-c2ccc(N(c3ccccc3)c3ccccc3)cc21` belongs 116 to 118 °C; to `COc1cc(C(C)=O)ccc1OCCCN1CCC(c2noc3cc(Cl)ccc23)CC1`, 116 to 118 °C.
As for `C#Cc1ccc(=O)oc1`, the melting point lay within 99 to 100 °C.
Regarding `O=Cc1ccc(-c2ccc(O)cc2)c2ccsc12`, the melting point is 203 to 204 °C.
`CC(C)(C)c1cc(CN2CC(N(O)C(=O)Oc3ccccc3)C2)cc(C(C)(C)C)c1O` returned a melting point of 161 to 163 °C.
The figure for `COc1ccc(F)cc1Oc1c(NS(=O)(=O)c2ccc(C(C)(C)C)cc2)ncnc1OC[C@@H]1COC(C)(C)O1` is > 86 °C; for `O=C(O)Cc1c(C(=O)O)c2cc(Oc3ccc(Cl)cc3)ccc2n1-c1ccccc1` it is 202 to 204 °C; for `CCC(=O)NCCc1c[nH]c2ccc(OCc3ccccc3)cc12` it is 110 to 112 °C.
Regarding `CC(C)(C)C(O)C(NC(=O)c1ccccc1)n1ccnc1` (centres undefined), the melting point stood at 143 °C.
The figure for `Cc1nn(Cc2ccccc2)c(=O)[nH]c1=O` is 141 to 142 °C.
The figure for `COc1cc(I)c(C(=O)N(c2ccnc3cc4c(cc23)OCO4)C(C)CN(C)C)cc1OC` (centres undefined) is 82 to 84 °C.
To `CC1(CS(=O)(=O)c2ccccc2)COC2(CCC(=O)CC2)OO1` (centres undefined) belongs 96 °C; to `CNC(=S)OCc1nc(C(C)C)c(Sc2cc(Cl)cc(Cl)c2)n1C`, 119 to 121 °C.
Compound `COc1cc(CC(=O)Nc2ccc(C3CN(C(=O)c4ccccc4)CC3C(=O)O)cc2)ccc1NC(=O)Nc1ccccc1C` (centres undefined) came in with a melting point of 248 °C.
Take `c1cc(Sc2cccc3cnccc23)c2ccncc2c1`: the melting point was 138 to 140 °C.
The figure for `Cc1ccc(NC(=O)C2C(=O)C3CC[C@](C)(C2=O)C3(C)C)cc1` (some centres undefined) is 80 to 82 °C; for `Cc1nc2ccc3c(c2o1)C(CCNC(=O)C(F)(F)F)CC3` (centres undefined) it is 104 to 106 °C; for `ClCc1c(-c2ccccc2)c(-c2ccccc2)nn1Cc1ccccc1` it is 99 °C.
On to `CCc1nnc2c(NC)nc3ccccc3n12`, for which the melting point is 271 to 273 °C.
The figure for `CC1(CC(=O)O)OCCc2c1[nH]c1ccc(O)cc21` (centres undefined) is 170 to 171 °C; for `CCCc1ccccc1Sc1c(C)n(CC(=O)O)c2ccc(NS(C)(=O)=O)cc12` it is 160 °C; for `Nc1c(CC(=O)O)cccc1Nc1ccccc1Cl` it is 230 to 232 °C.
The figure for `COC(=O)c1cc(N(C)C(C)=O)cc(N(C)C(C)=O)c1` is 106 °C.
`CC(C)Oc1nc(N)nc2c1ncn2C1CC(N=[N+]=[N-])C(CO)O1` (centres undefined) came in with a melting point of 195 to 197 °C.
In turn, `CCOC(=O)Cc1sc(Sc2cc(C(=O)OCC)nc(SC)n2)nc1C` came in with a melting point of 69 to 71 °C.
`CCOC(=O)C1=C(C)N=C(SCc2ccc(OC)cc2)N(C(=O)OCC)C1c1cccc(C#N)c1` (centres undefined) yielded a melting point of 85 to 87 °C.
As to `CCS(=O)(=O)c1ccc(C(=O)O)c(Cl)c1CBr`, the melting point worked out at 103 °C.
To `Brc1ccc2c3c(cccc13)C(NCCCCCn1ccnc1)=N2` belongs 138 to 140 °C; to `Nc1nc2c(c(Nc3cccc(Cl)c3)n1)-c1ccccc1C2`, 224 to 225 °C.
The figure for `CCCCOCCOc1ccc(-c2ccc3c(c2)C=C(C(=O)Nc2ccc(/C(Cc4nccn4CCC)=N/OCC)cc2)CCN3CC(C)C)cc1` is 156 °C; for `C=CCc1c(C(=O)N(C)C)cn2cc(C)nc2c1OC(=O)C(C)(C)C` it is 178 to 180 °C; for `O=C(c1ccccc1)c1cc(Cl)cc2c1S(=O)CC2C(=O)O` (centres undefined) it is 172 to 174 °C.
Turning to `COc1cc(-c2nc3ccccc3n2Cc2c(Cl)cccc2Cl)cc(OC)c1OC`, the melting point was 157 °C.

A word on the melting point: it is the temperature, or range, at which the solid turns liquid.

Source of the values: a melting point compilation (Tetko et al.; mined from patent text by program, amines drawn as free bases though some values may be those of a salt).
